US20250163104A1, “MACROCYCLIC IMMUNOMODULATORS” (priority 2021, published 2025)
*1 amine or outer side, *2 acyl side, *3 side chain or, on linkers, in order; H or OH if unused. Where a SMILES comes first, the peptide text is derived from it. Bridges are numbered along the chain shown (N, C = ends). [ ]: non-standard residue; d: D form. The star is where a group is joined. Phe(3-COOH) = N[C@@H](Cc1cccc(C(=O)O)c1)C(=O)O; X5 = O=C([C@H](Cc1ccc2ncccc2c1)N[*:1])[*:2]; Bip = N[C@@H](Cc1ccc(-c2ccccc2)cc1)C(=O)O; Phe(3-Me) = Cc1cccc(C[C@H](N)C(=O)O)c1; Ala(cPent) = N[C@@H](CC1CCCC1)C(=O)O; Val(3-OH) = CC(C)(O)[C@H](N)C(=O)O; Cha = N[C@@H](CC1CCCCC1)C(=O)O; Cit = NC(=O)NCCC[C@H](N)C(=O)O; Carboxymethyl = O=C(O)C*; Nle = CCCC[C@H](N)C(=O)O; Orn = NCCC[C@H](N)C(=O)O; Dab = NCC[C@H](N)C(=O)O; Dap = NC[C@H](N)C(=O)O

Each compound was assayed against T1, human PD-1 / PD-L1-Ig binding on Jurkat cell line over-expressing human PD-1 (Jurkat-PD-1) (Homo sapiens, UniProt Q15116) (assay: Jurkat-PD-1 Cell Binding High-Content Screening Assay (CBA)). Conditions: Jurkat-PD-1 cells, PE-labeled PD-L1-Ig 20 nM final; read-out: Jurkat HPD1_PDL1 IC50.
T1 construct: expressed in transfected cells; host or cells: Jurkat
Format: cell-based
In short: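 Read-out: high-content imaging of PE-tagged PD-L1-Ig bound to Jurkat cells overexpressing human PD-1, after fixation with 4% paraformaldehyde and Hoechst 33342 nuclear staining. Ligand was used at 20 nM final for 1 hour, after a 2 h compound exposure at 37° C in serum-containing DMEM.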

T1 sequence (Q15116 25-288): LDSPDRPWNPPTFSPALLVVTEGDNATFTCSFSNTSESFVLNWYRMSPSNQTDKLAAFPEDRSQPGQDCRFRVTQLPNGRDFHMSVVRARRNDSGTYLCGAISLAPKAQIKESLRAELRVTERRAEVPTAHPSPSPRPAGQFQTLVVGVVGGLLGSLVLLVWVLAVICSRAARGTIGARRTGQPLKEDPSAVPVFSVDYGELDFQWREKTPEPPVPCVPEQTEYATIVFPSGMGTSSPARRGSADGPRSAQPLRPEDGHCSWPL

Row | SMILES | IC50
1 | CC(C)C[C@@H]1NC(=O)[C@H](CCN)NC(=O)[C@@H](CC(C)C)NC(=O)[C@H](CCN)NC(=O)[C@H](C(C)C)NC(=O)[C@H](Cc2ccc(-c3ccccc3)cc2)NC(=O)[C@H](C(C)C)NC(=O)[C@H](Cc2c[nH]c3ccccc23)NC(=O)[C@H](CC(N)=O)NC(=O)[C@H](Cc2ccc(O)cc2)NC(=O)[C@H](CC(N)=O)NC(=O)CSC[C@@H](C(=O)N[C@@H](C)C(N)=O)NC(=O)[C@H](CO)NC(=O)[C@H](C(C)C)NC1=O [Compound 1080] ({CH2CO}-NYNWV[Bip]V[Dab][dL][Dab]LVSCA-NH2; thioether N-14) | 47.1 nM
2 | CC[C@H](C)[C@@H]1NC(=O)[C@H](Cc2c[nH]c3ccccc23)NC(=O)[C@H](CC(=O)O)NC(=O)[C@H](Cc2ccc(OCC(=O)O)cc2)NC(=O)[C@H](CN)NC(=O)CSC[C@@H](C(=O)N[C@@H](C)C(N)=O)NC(=O)[C@H]([C@@H](C)O)NC(=O)[C@H](C(C)C)NC(=O)[C@H](CC2CCCCC2)NC(=O)[C@H](CCN)NC(=O)[C@@H](CC(C)C)NC(=O)[C@H](CCCN)NC(=O)[C@H](CCC(=O)O)NC(=O)[C@H](Cc2ccc(-c3ccccc3)cc2)NC1=O [Compound 1717] ({CH2CO}-[Dap]Y(Carboxymethyl)DWI[Bip]E[Orn][dL][Dab][Cha]VTCA-NH2; thioether N-14) | 27.7 nM
3 | CC(C)C[C@H]1NC(=O)[C@H](CCCN)NC(=O)[C@H](CCC(=O)O)NC(=O)[C@H](Cc2ccc(-c3ccccc3)cc2)NC(=O)[C@H](C(C)C)NC(=O)[C@H](Cc2c[nH]c3ccccc23)NC(=O)[C@H](CC(=O)O)NC(=O)[C@H](Cc2ccc(OCC(=O)O)cc2)NC(=O)[C@H](CN)NC(=O)CSC[C@@H](C(=O)N[C@@H](C)C(N)=O)NC(=O)[C@H]([C@@H](C)O)NC(=O)[C@H](C(C)C)NC(=O)[C@H](Cc2cccc3ccccc23)NC(=O)[C@H](CCN)NC1=O [Compound 1474] | 68.6 nM
4 | CCCC[C@H]1NC(=O)[C@H](CCCN)NC(=O)[C@H](C(C)C)NC(=O)[C@H](Cc2ccc(-c3ccccc3)cc2)NC(=O)[C@H](C(C)C)NC(=O)[C@H](Cc2c[nH]c3ccccc23)NC(=O)[C@H](CC(=O)O)NC(=O)[C@H](Cc2ccncc2)NC(=O)[C@H](CN)NC(=O)CSC[C@@H](C(=O)N[C@@H](C)C(N)=O)NC(=O)[C@H]([C@@H](C)O)NC(=O)[C@H](C(C)C)NC(=O)[C@H](CC2CCCCC2)NC(=O)[C@H](CCN)NC1=O [Compound 1695] | 34.4 nM
5 | CC[C@H](C)[C@@H]1NC(=O)[C@H](Cc2ccc(-c3ccccc3)cc2)NC(=O)[C@H](CC2CCCC2)NC(=O)[C@H](Cc2c[nH]c3ccccc23)NC(=O)[C@H](CC(=O)O)NC(=O)[C@H](Cc2ccc(OCC(=O)O)cc2)NC(=O)[C@H](CN)NC(=O)CSC[C@@H](C(=O)N[C@@H](C)C(N)=O)NC(=O)[C@H]([C@@H](C)O)NC(=O)[C@H](C(C)C)NC(=O)[C@H](CC2CCCCC2)NC(=O)[C@H](CCN)NC(=O)[C@@H](CC(C)C)NC(=O)[C@H](CCCN)NC1=O [Compound 1723] ({CH2CO}-[Dap]Y(Carboxymethyl)DW[Ala(cPent)][Bip]I[Orn][dL][Dab][Cha]VTCA-NH2; thioether N-14) | 20.8 nM
6 | CCCC[C@@H]1NC(=O)[C@H](CCCNC(=N)N)NC(=O)[C@@H](CC(C)C)NC(=O)[C@H](CCCN)NC(=O)[C@H]([C@@H](C)CC)NC(=O)[C@H](Cc2ccc(-c3ccccc3)cc2)NC(=O)[C@H](C(C)C)NC(=O)[C@H](Cc2c[nH]c3ccccc23)NC(=O)[C@H](CC(=O)O)NC(=O)[C@H](Cc2ccc(O)cc2)NC(=O)[C@H](CN)NC(=O)CSC[C@@H](C(=O)N[C@@H](C)C(N)=O)NC(=O)[C@H]([C@@H](C)O)NC(=O)[C@H](C(C)C)NC1=O [Compound 1149] ({CH2CO}-[Dap]YDWV[Bip]I[Orn][dL]R[Nle]VTCA-NH2; thioether N-14) | 47 nM
7 | CC(C)C[C@H]1NC(=O)[C@H](CCCN)NC(=O)[C@H](CCC(=O)O)NC(=O)[C@H](Cc2ccc(-c3ccccc3)cc2)NC(=O)[C@H](CC2CCCC2)NC(=O)[C@H](Cc2c[nH]c3ccccc23)NC(=O)[C@H](CC(=O)O)NC(=O)[C@H](Cc2ccc(OCC(=O)O)cc2)NC(=O)[C@H](CN)NC(=O)CSC[C@@H](C(=O)N[C@@H](C)C(N)=O)NC(=O)[C@H]([C@@H](C)O)NC(=O)[C@H](C(C)C)NC(=O)[C@H](CC2CCCCC2)NC(=O)[C@H](CCN)NC1=O [Compound 1715] ({CH2CO}-[Dap]Y(Carboxymethyl)DW[Ala(cPent)][Bip]E[Orn][dL][Dab][Cha]VTCA-NH2; thioether N-14) | 38.4 nM
8 | CC(C)C[C@@H]1NC(=O)[C@H](Cc2c[nH]c3ccccc23)NC(=O)[C@H](CC(=O)O)NC(=O)[C@H](Cc2ccc(O)cc2)NC(=O)[C@H](Cc2ccccc2)NC(=O)CSC[C@@H](C(=O)NCC(N)=O)NC(=O)[C@H](CO)NC(=O)[C@H](C(C)C)NC(=O)[C@H](CC(C)C)NC(=O)[C@H](CCN)NC(=O)[C@@H](C)NC(=O)[C@H](CCCN)NC(=O)[C@H](C(C)C)NC(=O)[C@H](Cc2ccc(-c3ccccc3)cc2)NC1=O [Compound 1096] ({CH2CO}-FYDWL[Bip]V[Orn][dA][Dab]LVSCG-NH2; thioether N-14) | 68.8 nM
9 | CC(C)C[C@@H]1NC(=O)[C@H](CCN)NC(=O)[C@@H](CC(C)C)NC(=O)[C@H](CCN)NC(=O)[C@H](CCCNC(N)=O)NC(=O)[C@H](Cc2ccc(-c3ccccc3)cc2)NC(=O)[C@H](C(C)C)NC(=O)[C@H](Cc2c[nH]c3ccccc23)NC(=O)[C@H](CC(=O)O)NC(=O)[C@H](Cc2ccc(O)cc2)NC(=O)[C@H](CC(N)=O)NC(=O)CSC[C@@H](C(=O)NCC(N)=O)NC(=O)[C@H](CO)NC(=O)[C@H](C(C)C)NC1=O [Compound 1114] ({CH2CO}-NYDWV[Bip][Cit][Dab][dL][Dab]LVSCG-NH2; thioether N-14) | 31.6 nM
10 | CC[C@H](C)[C@@H]1NC(=O)[C@H](Cc2ccc(-c3ccccc3)cc2)NC(=O)[C@H](C(C)C)NC(=O)[C@H](Cc2cccc(C)c2)NC(=O)[C@H](CC(=O)O)NC(=O)[C@H](Cc2ccc(OCC(=O)O)cc2)NC(=O)[C@H](CN)NC(=O)CSC[C@@H](C(=O)N[C@@H](C)C(N)=O)NC(=O)[C@H]([C@@H](C)O)NC(=O)[C@H](C(C)C)NC(=O)[C@H](CC2CCCCC2)NC(=O)[C@H](CCN)NC(=O)[C@@H](CC(C)C)NC(=O)[C@H](CCCN)NC1=O [Compound 1210] | 11.5 nM

The remaining lines, values ahead:

Row | IC50 | SMILES
11 | 9.7 nM | CCC(C)[C@@H]1NC(=O)[C@H](Cc2ccc(-c3ccccc3)cc2)NC(=O)[C@H](C(C)C)NC(=O)[C@H](Cc2cccc(C)c2)NC(=O)[C@H](CC(=O)O)NC(=O)[C@H](Cc2ccc(C(=O)O)cc2)NC(=O)[C@H](CCCNC(=N)N)NC(=O)CSC[C@@H](C(=O)N[C@@H](C)C(N)=O)NC(=O)[C@H](C(C)O)NC(=O)[C@H](C(C)C)NC(=O)[C@H](CC2CCCCC2)NC(=O)[C@H](CCN)NC(=O)[C@@H](CC(C)C)NC(=O)[C@H](CCCN)NC1=O (stereo partly drawn) [Compound 2538]
12 | 15.1 nM | CC(C)C[C@@H]1NC(=O)[C@H](Cc2c[nH]c3ccccc23)NC(=O)[C@H](CC(=O)O)NC(=O)[C@H](Cc2cccc(C(=O)O)c2)NC(=O)[C@H](CN)NC(=O)CSC[C@@H](C(=O)NCC(N)=O)NC(=O)[C@H](CO)NC(=O)[C@H](C(C)C)NC(=O)[C@H](CC2CCCCC2)NC(=O)[C@H](CCN)NC(=O)[C@@H](CC(C)C)NC(=O)[C@H](CCCN)NC(=O)[C@H](C(C)C)NC(=O)[C@H](Cc2ccc(-c3ccccc3)cc2)NC1=O [Compound 2021] ({CH2CO}-[Dap][Phe(3-COOH)]DWL[Bip]V[Orn][dL][Dab][Cha]VSCG-NH2; thioether N-14)
13 | 0.4 nM | CCCC[C@@H]1NC(=O)CSC[C@@H](C(=O)N[C@@H](CCN)C(N)=O)NC(=O)[C@H](CO)NC(=O)[C@H](C(C)(C)O)NC(=O)[C@H](CC2CCCCC2)NC(=O)[C@H](CCN)NC(=O)[C@@H](CC(C)C)NC(=O)[C@H](CCCN)NC(=O)[C@H](Cc2ccc(OCC(=O)O)cc2)NC(=O)[C@H](Cc2ccc(-c3ccccc3)cc2)NC(=O)[C@H](Cc2ccc(OCC(=O)O)cc2)NC(=O)[C@H](Cc2cccc(C)c2)NC(=O)[C@H](CC(=O)O)NC(=O)[C@H](Cc2ccc(OCC(=O)O)cc2)NC1=O [Compound 2687] ({CH2CO}-[Nle]Y(Carboxymethyl)D[Phe(3-Me)]Y(Carboxymethyl)[Bip]Y(Carboxymethyl)[Orn][dL][Dab][Cha][Val(3-OH)]SC[Dab]-NH2; thioether N-14)
14 | 23.6 nM | Cc1cccc(C[C@@H]2NC(=O)[C@H](CC(=O)O)NC(=O)[C@H](Cc3ccc(OCC(=O)O)cc3)NC(=O)[C@H](CN)NC(=O)CSC[C@@H](C(N)=O)NC(=O)[C@H](CCC(N)=O)NC(=O)[C@H](C(C)C)NC(=O)[C@H](CC3CCCCC3)NC(=O)[C@H](CCN)NC(=O)[C@@H](CC(C)C)NC(=O)[C@H](CCCN)NC(=O)[C@H](Cc3ccc(OCC(=O)O)cc3)NC(=O)[C@H](Cc3ccc(-c4ccccc4)cc3)NC(=O)[C@H](Cc3ccc(OCC(=O)O)cc3)NC2=O)c1 [Compound 1782] ({CH2CO}-[Dap]Y(Carboxymethyl)D[Phe(3-Me)]Y(Carboxymethyl)[Bip]Y(Carboxymethyl)[Orn][dL][Dab][Cha]VQC-NH2; thioether N-14)
15 | 111 nM | CC(C)C[C@H]1NC(=O)[C@H](CCCN)NC(=O)[C@H](CCC(=O)O)NC(=O)[C@H](Cc2ccc(-c3ccccc3)cc2)NC(=O)[C@H](C(C)C)NC(=O)[C@H](Cc2c[nH]c3ccccc23)NC(=O)[C@H](CC(=O)O)NC(=O)[C@H](Cc2ccc3ncccc3c2)NC(=O)[C@H](Cc2ccccc2)NC(=O)CSC[C@@H](C(=O)N[C@@H](C)C(N)=O)NC(=O)[C@H]([C@@H](C)O)NC(=O)[C@H](C(C)C)NC(=O)[C@H](CC2CCCCC2)NC(=O)[C@H](CCN)NC1=O [Compound 2176] ({CH2CO}-F[X5]DWV[Bip]E[Orn][dL][Dab][Cha]VTCA-NH2; thioether N-14)
